Source: patent EP4745130A1, “CRYSTAL FORMS OF TUBULIN-SRC DUAL-TARGETING INHIBITOR, PREPARATION METHOD THEREFOR AND USE THEREOF” (Hubei Bio-Pharmaceutical Industrial Technological Institute …, priority 2023, dated 2025)
Like-named read-outs stand apart in the source and are kept apart here.

Tests used:
[1] = Thermodynamic solubility test; type: physicochemical; settings: for solubility: thermodynamic from solid, 4 mg/mL, overnight at room temperature
Protocol: Phosphate buffer saline (PBS) with a pH of 7.4, FeSSIF solution with a pH of 6.5, and FaSSGF solution with a pH of 1.6 were prepared. The compound was accurately weighed and added to prepared phosphate buffer saline with a pH of 7.4, FeSSIF solution with a pH of 6.5, and FaSSGF solution with a pH of 1.6 to prepare into a solution with a concentration of 4 mg/mL. The solution was shaken at a speed of 1000 rpm for 1 hour, and then incubated overnight at room temperature. The incubated solution was centrifuged at 12,000 rpm for 10 minutes to remove undissolved particles, and the supernatant was transferred to a new centrifuge tube. After the supernatant was appropriately diluted, an acetonitrile solution containing internal standard was added, and a standard curve prepared with the same matrix was used for quantification. Table 42: Thermodynamic solubility test results

p-SRC = test: Inhibition of Src signaling pathway (Western Blot of p-SRC in A-431 cells); type: cell-based, Human
Protocol: The Western Blot method was used to detect the compound's inhibition of p-SRC in A-431 skin cancer cells (ATCC, CRL-1555) to evaluate the inhibitory effect of the compound on the SRC signaling pathway.
A-431 cells were cultured in DMEM medium containing 10% fetal bovine serum and grown at 37°C in a 5% CO2 incubator. 500,000 cells/well were seeded in a 12-well cell culture plate and cultured overnight at 37°C in a 5% CO2 incubator. The next day, the culture medium was replaced and different concentrations of the compound were added, with DMSO serving as a control. After the addition of the compounds, the culture plate was cultured for another 24 hours at 37°C in a 5% CO2 incubator. The cells were washed once with PBS, and lysed with RIPA lysis buffer (R0010, Solarbio) at low temperature for 30 minutes. Afterwards, the protein lysate was collected into a centrifuge tube, centrifuged at 14,000 g at 4°C for 10 minutes, and the supernatant was transferred to a new tube. The BCA protein concentration assay kit (P0009, Beyotime Biotechnology) was used to detect and calculate the protein concentration. A 5× protein loading buffer was used to quantify the protein of each sample consistently. The samples were boiled at 100°C for 5 minutes, and subjected to western blot to detect the level of p-SRC. […]

[2] = Pharmacokinetic test in mice; type: in vivo
Protocol: For the pharmacokinetic test in mice, 3 male ICR mice, 20 to 25 g, were used, fasted overnight, and administered by tail vein injection (1 mg/kg or 5 mg/kg). Blood was collected before the administration, and at 15 min, 30 min, 1 hour, 2 hours, 4 hours, 8 hours, and 24 hours after the administration. Another 3 mice were taken and administered by oral gavage (5 mg/kg), and blood was collected before the administration, and at 15 min, 30 min, 1 hour, 2 hours, 4 hours, 8 hours, and 24 hours after the administration. Blood samples were centrifuged at 6800 g at 2 to 8°C for 6 min, and plasma was collected and stored at -80°C. The plasma at each time point was taken and added with an acetonitrile solution containing internal standard in 3 to 5 times the amount. The mixture was vortexed and mixed for 1 min, and centrifuged at 13,000 rpm at 4°C for 10 min. The supernatant was collected, added with water in 3 times the amount, and mixed. An appropriate amount of the mixture was taken for LC-MS/MS analysis. The main pharmacokinetic parameters were analyzed using WinNonlin 7.0 software with non-compartmental model. Table 43: Results 1 of pharmacokinetic tests in mice

[3] = test system: actinic keratosis patient-derived cell HT 297.T; test: Cell proliferation inhibition test, HT 297.T; type: cell-based, Human
Protocol: Human cutaneous squamous cell carcinoma cell A-431 (ATCC, CRL-1555) and actinic keratosis patient-derived cell HT 297.T (ATCC, CRL-7782) proliferation assays were used to detect the inhibitory effect of small molecular compounds on cell proliferation.
A-431 cells and HT 297.T cells were cultured in DMEM medium containing 10% fetal bovine serum and grown at 37°C in a 5% CO2 incubator. Cells on logarithmic phase were seeded into a 96-well cell culture plate at 1000 cells/well, 100 µL per well, and then cultured overnight at 37°C in a 5% CO2 incubator. The next day, 100 µL of gradient-diluted 2× test compound solution was added to each well, with DMSO serving as a positive control, and 10 µM staurosporine (Aladdin, S102392) was set as a negative control group. After the addition of the compounds, the culture plate was incubated for another 4 days at 37°C in a 5% CO2 incubator. After incubation, the Steady-Glo® luciferase assay system (Promega, G9243) was used according to the supplier's instructions to measure the fluorescence signal value on the Envision 2104 Multilabel Reader. The inhibition rate was calculated by the following formula, then the curve was plotted with the Log value of the inhibitor concentration as the X-axis and the inhibition rate as the Y-axis, and the IC50 was calculated using Graphpad 8.0. [formula] Table 41: Inhibition results of test compounds on proliferation activity of A-431 and HT 297.T cells

[4] = in words, compared with the control compound
[5] = mouse, plasma, male ICR mice, intravenous injection administration (1 mg/kg)
[6] = mouse, plasma, male ICR mice, oral gavage administration (5 mg/kg)

solubility ([1]; FeSSIF solution, FeSSIF (pH 6.5), read-out: Solubility (µg/mL) FeSSIF (pH 6.5)): 650 µg/mL
thermodynamic solubility ([1]; in words, under neutral conditions, compared with the control compound): greater thermodynamic solubility
solubility ([1]; phosphate buffer saline (PBS), aqueous buffer, PBS (pH 7.4), read-out: Solubility (µg/mL) PBS (pH 7.4)): 101 µg/mL
metabolism in mice in vivo [2, 4]: rapid metabolism
AUC(0-t) [2, 5]: 430 ng·h/mL
clearance [2, 5]: 34.5 mL/min/kg
AUC(0-t) [2, 6]: 443 ng·h/mL
Cmax [2, 6]: 322 ng/mL
SMILES: Cc1cc(OCCN2C[C@H]3COC[C@H]3C2)ccc1-c1ccc(CC(=O)NCc2ccccc2)nc1 [Compound of Formula I, N-benzyl-2-(5-(2-methyl-4-(2-((3aR,6aS)-tetrahydro-1H-furo[3,4-c]pyrrol-5(3H)-yl)ethoxy)phenyl)pyridin-2-yl)acetamide]
phosphorylation of SRC (p-SRC; 80 nM, A-431 cells, 24 hours): significantly inhibit the phosphorylation of SRC
p-SRC inhibitory activity (p-SRC; [4]): better p-SRC inhibitory activity compared with the control compound
IC50 ([3]; Homo sapiens, 96 h, 4 days incubation): 0.0413 µM
inhibitory effect on HT 297.T cells ([3]; in words, versus control compound): significantly better than that of the control compound
